{
  "source": "patent US20090306045A1",
  "about": "“Inhibition of Glycogen Synthase Kinase and Methods of Treating Autoimmune or Immune Inflammatory Disease” (priority 2005, published 2009)",
  "key": {"[1]": {"tested_on": "DCs", "assay": "MHC class II redistribution in DCs by immunofluorescence", "type": "cell-based", "settings": "immunofluorescence (not shown)"}, "[2]": {"tested_on": "β-catenin", "assay": "Cytosolic β-catenin accumulation in human DCs (cell fractionation, Western blot)", "type": "cell-based", "settings": "human DCs (not shown)"}, "[3]": {"tested_on": "β-catenin", "assay": "Cytosolic β-catenin accumulation in murine DCs (cell fractionation, Western blot)", "type": "cell-based", "settings": "murine immature DCs, different doses", "method": "BMDCs were treated with either LPS or different doses of SB216763. CD11c^+ DCs were then fractionated into membrane and cytosolic fractions, followed by immunoblotting with antibodies against β-catenin (top) and E-cadherin (middle). Akt was probed as a loading control (bottom).\nSB 216763 was purchased from Tocris Cookson Inc. (Ellisville, Mo.). […] Cell Culture and purification of DC, OT-I and OT-II T cells Mouse DM-derived CD11c^+ DCs were isolated using anti-CD11c-conjugated beads and columns (Miltenyi Biotech) according to the manufacturer's protocol. The resulted CD11c^+ DCs were then resuspended in the same culture media at 5-10×10^5 cells/ml; these cells were in single cell suspension and thus referred as cluster-disrupted cells. […] Cell fractionation, Immunoprecipitation and Western blotting Cells were homogenized in hypotonic buffer (10 mM HEPES-KOH pH 7.4, 1.5 mM MgCl2, 10 mM KCl, 0.5 mM DTT) with proteinase and phosphatase inhibitors by passing through 30 gauge needles for 10 times. Postnuclear fractions were centrifuged at 45,000 rpm for 45 min to separate membrane and cytosol fractions. Total cell lysates were obtained with 1% NP-40 lysis buffer (1% Nonidet P-40, 150 mM NaCl, 20 mM Tris, and ImM EDTA (pH 7.5)) supplemented with proteinase and phosphatase inhibitors."}, "[4]": {"tested_on": "active β-catenin", "assay": "Active β-catenin by sequential immunoprecipitation and immunoblotting in BMDCs", "type": "cell-based", "settings": "bone marrow-derived DC cultures", "from_the_text": "Bone marrow-derived DC cultures were either treated with LPS, SB216763 or cluster disruption (CD). CD11c^+ cells were purified and same number of cells were used to make cell lysates as described. Cell lysates were then subject to sequential immunoprecipitation with antibodies against E-cadherin and β-catenin, followed by immunoblotting with antibodies against E-cadherin (top), active β-catenin (middle) and total β-catenin (bottom).\nBMDCs were either treated with LPS or CD and cell lysates from CD11c^+ DCs were subject to sequential immunoprecipitation with antibodies against E-cadherin and β-catenin, followed by immunoblotting with antibodies against E-cadherin (top), active β-catenin (middle) and total β-catenin (bottom).\nReagents and Antibodies Rat anti-E-cadherin, mouse anti-β-catenin, mouse anti-p120 catenin were purchased from BD Transduction Laboratories (Lexington, Calif.). Both mouse anti-E-cadherin (HECD-1 and SHE78-7) and rat anti-E-cadherin (ECCD-1 and 2) monoclonal antibodies were obtained from Zymed (San Francisco, Calif.). Rat monoclonal anti-E-cadherin and rabbit polyclonal β-catenin were obtained from Sigma-Aldrich. […] Flow Cytometry Assays Cells were stained for 30 min on ice with primary antibody and if necessary secondary antibody, washed, and then evaluated on a FACSCalibur™ (Becton Dickinson). […]"}, "[5]": {"target": "GSK3β (Homo sapiens, UniProt P49841)", "sequence (P49841 whole entry, species assumed)": "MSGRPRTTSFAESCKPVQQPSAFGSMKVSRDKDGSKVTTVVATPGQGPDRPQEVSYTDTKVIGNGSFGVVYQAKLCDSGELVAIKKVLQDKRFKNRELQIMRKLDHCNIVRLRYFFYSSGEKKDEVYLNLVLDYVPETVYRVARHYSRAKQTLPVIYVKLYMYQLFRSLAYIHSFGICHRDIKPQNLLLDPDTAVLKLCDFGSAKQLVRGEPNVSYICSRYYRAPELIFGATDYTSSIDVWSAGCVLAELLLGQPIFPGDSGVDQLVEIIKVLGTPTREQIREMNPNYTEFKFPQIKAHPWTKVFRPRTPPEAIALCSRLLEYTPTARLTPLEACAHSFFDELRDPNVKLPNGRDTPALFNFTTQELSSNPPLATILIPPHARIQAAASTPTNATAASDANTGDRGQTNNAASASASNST", "settings": "cited from earlier work"}, "[6]": {"tested_on": "DCs", "assay": "Cytokine and chemokine production by treated DCs", "type": "cell-based", "from_the_text": "The ability of the GSK3β inhibitor SB216763 to induce maturation was particularly striking. While it is possible this effect was limited to the dramatic increase in free β-catenin, GSK3β also has other targets. For example, by inhibiting GSK3β-mediated phosphorylation of NF-AT, this transcriptional activator would be more readily translocated into the nucleus, possibly synergyzing with β-catenin (Crabtree and Olson, 2002). Other potential mediators (eg Hedgehog, p53, c-myc) might also be affected (Doble and Woodgett, 2003). […] Cytokine and chemokine multiplex analysis The levels of cytokines and chemokines were measured with Luminex suspension array technology. Supernatants were collected and frozen at −80° C. For human CD34^+-derived DCs, cell culture supernatants were then analyzed using the Beadlyte cytokine assay kit (Upstate) with manufacturer's protocol. For mouse cytokines, supernatants were analyzed using the Bio-Plex cytokine assay kit and supporting reagents (BioRad) following manufacturer's procedures."}, "[7]": {"tested_on": "CD11c+ DCs", "assay": "DC maturation of murine BMDCs, CD86 expression by FACS", "type": "cell-based, mouse", "method": "BMDCs were prepared as described and CD11c^+ DCs were purified at day 6 and replated at 5×10^5 cells/ml.\nCD11c^+ DCs after different stimuli were subject to FACS analysis.\nSB 216763 was purchased from Tocris Cookson Inc. (Ellisville, Mo.). […] Flow Cytometry Assays Cells were stained for 30 min on ice with primary antibody and if necessary secondary antibody, washed, and then evaluated on a FACSCalibur™ (Becton Dickinson). […] Cell Culture and purification of DC, OT-I and OT-II T cells Mouse DM-derived CD11c^+ DCs were isolated using anti-CD11c-conjugated beads and columns (Miltenyi Biotech) according to the manufacturer's protocol. The resulted CD11c^+ DCs were then resuspended in the same culture media at 5-10×10^5 cells/ml; these cells were in single cell suspension and thus referred as cluster-disrupted cells."}},
  "note": "Entries after “also recorded” stand apart in the source; their conditions may differ.",
  "data": [
    {"smiles": "Cn1cc(C2=C(c3ccc(Cl)cc3Cl)C(=O)NC2=O)c2ccccc21", "note": "[SB216763]", "values": [
      {"measurement": "mature DC phenotype, MHC class II distribution", "setting": "[1]", "value": "MHC class II molecules redistributing from lysosomes to the plasma membrane"},
      {"measurement": "accumulation of β-catenin in the cytosol", "setting": "[2]", "value": "dose-dependent accumulation of β-catenin in the cytosol"},
      {"measurement": "accumulation of β-catenin in the cytosol", "setting": "[3]", "value": "dose-dependent accumulation of β-catenin in the cytosol; also recorded: Dose-dependent accumulation of cytosolic β-catenin"},
      {"measurement": "activation of β-catenin (active, non-phosphorylated β-catenin)", "setting": "[4]", "value": "Resulted in Activation of β-Catenin"},
      {"measurement": "selectivity as GSK3β inhibitor", "setting": "[5]", "value": "selective inhibitor of GSK3β"},
      {"measurement": "production of inflammatory cytokines", "setting": "[6]", "value": "failed to induce the production of inflammatory cytokines"},
      {"measurement": "formation of chemokines (eg IP10, MCP-1, MIP-α, CXCL8)", "setting": "[6]; compared with cluster disruption", "value": "induced the formation of the same array of chemokines as did CD"},
      {"measurement": "effectiveness at triggering DC maturation compared with LPS and cluster disruption (CD)", "setting": "[7]; 10 μM", "value": "nearly as effective as LPS at triggering DC maturation, and slightly more effective than CD"},
      {"measurement": "mature population (percentage of cells expressing high CD86)", "setting": "[7]; added to immature DCs, different doses", "value": "increased in a dose-dependent manner; also recorded: results in DC maturation"}
    ]}
  ]
}
